# Measurements taken from the supplement of paper PMC13380429.
# Experiments:
# Conditions in all cases: 72 h
# U2OS [1] = experiment: cell viability relative to DMSO; higher = less toxic
# Vero E6 [2] = experiment: as above
# Caco-2 [3] = experiment: as above
# Calu-3 [4] = experiment: as above
# HepG2 [5] = experiment: as above
# U2OS [6] = experiment: relative viability EC50 (midpoint between 100% and the lowest measured viability); higher = less toxic
# Vero E6 [7] = experiment: as above
# Caco-2 [8] = experiment: as above
# Calu-3 [9] = experiment: as above
# HepG2 [10] = experiment: as above
# U2OS [11] = experiment: drug sensitivity score (DSS) for viability; higher = more toxic; extreme values may be limits of the assay
# Vero E6 [12] = experiment: as above
# Caco-2 [13] = experiment: as above
# Calu-3 [14] = experiment: as above
# HepG2 [15] = experiment: as above
SMILES,cell viability (U2OS [1]; 1 nM) [%],cell viability (U2OS [1]; 10 nM) [%],cell viability (U2OS [1]; 100 nM) [%],cell viability (U2OS [1]; 1000 nM) [%],cell viability (U2OS [1]; 10000 nM) [%],cell viability (Vero E6 [2]; 1 nM) [%],cell viability (Vero E6 [2]; 10 nM) [%],cell viability (Vero E6 [2]; 100 nM) [%],cell viability (Vero E6 [2]; 1000 nM) [%],cell viability (Vero E6 [2]; 10000 nM) [%],cell viability (Caco-2 [3]; 1 nM) [%],cell viability (Caco-2 [3]; 10 nM) [%],cell viability (Caco-2 [3]; 100 nM) [%],cell viability (Caco-2 [3]; 1000 nM) [%],cell viability (Caco-2 [3]; 10000 nM) [%],cell viability (Calu-3 [4]; 1 nM) [%],cell viability (Calu-3 [4]; 10 nM) [%],cell viability (Calu-3 [4]; 100 nM) [%],cell viability (Calu-3 [4]; 1000 nM) [%],cell viability (Calu-3 [4]; 10000 nM) [%],cell viability (HepG2 [5]; 1 nM) [%],cell viability (HepG2 [5]; 10 nM) [%],cell viability (HepG2 [5]; 100 nM) [%],cell viability (HepG2 [5]; 1000 nM) [%],cell viability (HepG2 [5]; 10000 nM) [%],relative viability EC50 (U2OS [6]) [µM],relative viability EC50 (Vero E6 [7]) [µM],relative viability EC50 (Caco-2 [8]) [µM],relative viability EC50 (Calu-3 [9]) [µM],relative viability EC50 (HepG2 [10]) [µM],drug sensitivity score (U2OS [11]),drug sensitivity score (Vero E6 [12]),drug sensitivity score (Caco-2 [13]),drug sensitivity score (Calu-3 [14]),drug sensitivity score (HepG2 [15])
CCN(CC)CCCCC1CCN(CC(=O)N2c3ccccc3C(=O)Nc3cccnc32)CC1 [AQ-RA741],97.1,96.3,105,98.6,104,102,106,96.7,97.8,95.9,101,90.9,98.2,86.4,97.1,105,94.7,108,109,96.4,100,102,102,101,90.1,> 10,> 10,> 10,> 10,> 10,0,0,0,0,0
COc1ccc2cc(C(C)C(=O)Oc3ccc(C(N)=S)cc3)ccc2c1 (stereo not given) [ATB-346],99.7,100,99.1,99.9,96.9,100,94.3,95.7,94.4,97.6,90,102,93.7,89.6,98.6,100,102,98.8,102,101,98.2,88.4,97.2,98.7,97.7,> 10,> 10,> 10,> 10,> 10,0,0,0,0,0
Cc1c(-c2ccnn2C)cc(C(=O)NCc2ccc(S(C)(=O)=O)cn2)c(=O)n1-c1cccc(C(F)(F)F)c1 [AZD9668],97,93.6,102,95.7,102,97.3,102,89.7,92.2,107,93.9,101,106,96.9,101,94.5,103,99.9,92.9,97.1,101,102,98,108,103,> 10,> 10,> 10,> 10,> 10,0,0,0,0,0
COC(=O)C1=C(C)N(C)C(C)=C(C(=O)OC)C1c1ccc(C(F)(F)F)cc1 [BAY-W-9798],96.9,102,96.4,102,103,93.7,92.5,94.2,96.3,107,91.8,99.4,98.9,97.1,95.4,95.1,103,93.4,98.1,100,96.7,93.3,106,96.3,101,> 10,> 10,> 10,> 10,> 10,0,0,0,0,0
N=C(N)SCc1ccc(B(O)O)cc1 [BC-11],102,102,98.8,97.1,97.1,108,96.6,97.9,101,99.8,102,101,96.1,108,92.4,92.3,101,105,107,99.6,107,99.7,99.8,88.6,92.8,> 10,> 10,> 10,> 10,> 10,0,0,0,0,0.4
NCCCC[C@H](NC(=O)[C@@H](Cc1cc(Br)c(O)c(Br)c1)NC(=O)N1CCC(N2Cc3ccccc3NC2=O)CC1)C(=O)N1CCN(c2ccncc2)CC1 [BIBN4096],95.8,98.5,94.8,84.5,91.6,102,97.2,98.6,99.1,104,88.6,97,101,90.3,100,93.7,96.9,100,110,105,102,97.2,92.4,97.5,102,> 10,> 10,> 10,> 10,> 10,0.3,0,0,0,0
CCOC(=O)[C@]12CC1/C(=N\O)c1ccccc1O2 (stereo not given in full) [CPCCOEt],98.7,92.2,96.4,94.4,96.4,93.5,99.1,90.6,95.2,110,103,94.7,89.2,98.8,104,94.1,105,92.3,98.4,95.4,91.7,102,93.5,104,99.2,> 10,> 10,> 10,> 10,> 10,0,0,0,0,0
